For eleven compounds, IC50 results are on record in patent publication US20230203060A1 (GENFLEET THERAPEUTICS (SHANGHAI) INC., priority 2020, published 2023).

What all share (assay type): cell-based, human
The subject of experiment [1] is KRAS G12C mutant NCI-H358 cells. In words: Cell proliferation inhibition experiment, 3D spheroid, CellTiter-Glo, NCI-H358. The note with it: Homo sapiens, NCI-H358, 120 h, NCI-H358 (KRAS G12C mutant) 3D spheroid, 5 days with compound, CellTiter-Glo; read-out: H358 IC50. The text has this:
(§1) Raw materials and instruments: NCI-H358 purchased from ATCC; article number: CRL-5807; batch number: 70010825; A549 purchased from ATCC; article number: CCL-185; batch number: 70007820; RPMI1640 purchased from Gibco; article number: 11875-093; batch number: 2152748; F-12K purchased from Gibco; article number: 21127-022; batch number: 2185853; FBS purchased from Gibco; article number: 10099-141; batch number: 2109290CP; PS purchased from Gibco; article number: 15140-122; batch number: 2145451; Trypsin-EDTApurchased from Gibco; article number: 25200-072; batch number: 2085552; CellTiter Glo working solution purchased from Promega; article number: G9683; batch number: 398478; DMSO purchased from VWR AMRESCO; article number: 0231-500ML; batch number: 18C0656168; 384-well spheroid plate purchased from Corning; article number: 3830; batch number: 27519032; white opaque 384-well plate purchased from Corning; article number: 3570; batch number: 26819023; microplate reader purchased from PerkinElmer; model: Envision MLD2105-0020; equipment number 1050369.
(§2) NCI-H358 is a KRAS G12C mutant human non-small cell lung cancer cell line, cultured in 10% FBS RPMI-1640+1% PS culture medium; and A549 is a KRAS G12S mutant human lung adenocarcinoma cell line, cultured in 10% FBS F-12K+1% PS culture medium. Cells at logarithmic growth stage were taken, digested with trypsin-EDTA, then collected and counted. H358 was adjusted to 1.8 E4 cells/mL with 2% FBS RPMI-1640 culture medium, and A549 was adjusted to 8.9 E3 cells/mL with 2% FBS F-12K culture medium; 800 (45 μL) H358 or 400 (45 μL) A549 were inoculated respectively in a 384-well spheroid plate and cultured overnight to establish a 3D cell model. A 3.16-fold gradient concentration stock solution of 1000× compound was prepared with DMSO, and diluted 100-fold to 10× compound stock solution with 2% FBS culture medium. On the second day after cell inoculation, 5 μL of 10× compound stock solution was added to each cell culture well, with a final concentration of 1× and a DMSO content of 0.1%. DMSO was used as experimental control (control), and 2% FBS culture medium was used as blank control (blank). After 5 days of compound cell culture, 25 μL of CellTiter-Glo working solution was added to each well, mixed well at 400 rpm and incubated for 30 minutes. After standing at room temperature for 30 minutes, 40 μL of the mixed solution was transferred to a white opaque 384-well plate, and the luminescence chemiluminescence value was read with a microplate reader. The cell proliferation inhibition rate IR (%)=(RLU control -RLU compound)/(RLU control -RLU blank) x100% was calculated. The gradient dilution concentration of the compound and the corresponding cell proliferation inhibition rate were fitted by Prism 6 four-parameter method, and the IC50 value was calculated. The inhibitory activity of the compounds prepared in the above embodiments of the present disclosure on KRAS G12C mutant NCI-H358 cells was 0.0001 μM to 0.5 μM; the inhibitory activity of some compounds on KRAS G12C mutant NCI-H358 cells was 0.001 μM to 0.1 μM or 0.001 μM to 0.05 μM.
In general terms: Cellular ATP, detected with luciferase, serves as a proxy for viable cell number.

The subject of experiment [2] is KRAS G12C mutant MIA PaCa-2 cells. In words: Cell proliferation inhibition experiment, 3D spheroid, CellTiter-Glo, MIA PaCa-2. The settings on record: Homo sapiens, MIA PaCa-2, 120 h, 3D cell model in 384-well spheroid plate, 5 days, CellTiter-Glo; read-out: MIA-PaCa2 IC50. An excerpt: Raw materials and instruments: MIA PaCa-2 purchased from ATCC; article number: CRL-1420; batch number: 63143594; DMEM purchased from Gibco; article number: 11995-065; batch number: 2186878; FBS purchased from Gibco; article number: 10099-141; batch number: 2109290CP; Horse Serum purchased from Gibco; article number: 16050-122; batch number: 1818976; PS purchased from Gibco; article number: 15140-122; batch number: 2145451; Trypsin-EDTA purchased from Gibco; article number: 25200-072; batch number: 2085552; CellTiter Glo working solution purchased from Promega; article number: G9683; batch number 398478; DMSO purchased from VWR AMRESCO; article number: 0231-500ML; batch number: 18C0656168; 384-well spheroid plate purchased from Corning; article number: 3830; batch number: 27519032; white opaque 384-well plate purchased from Corning; article number: 3570; batch number: 26819023; microplate reader purchased from PerkinElmer; model: Envision MLD2105-0020; equipment number 1050369.
MIA PaCa-2 is a KRAS G12C mutant human pancreatic cancer cell line, cultured in 10% FBS+2.5% Horse Serum DMEM+1% PS culture medium; cells at logarithmic growth stage were taken, digested with trypsin-EDTA, then collected and counted, and 200 MIA PaCa-2 were inoculated in a 384-well spheroid plate, respectively, and cultured overnight to establish a 3D cell model. A 3.16-fold gradient concentration stock solution of 1000× compound was prepared with DMSO, and diluted 100-fold to 10× compound stock solution with culture medium. On the second day after cell inoculation, 10× compound stock solution was added to each cell culture well, with a final concentration of 1× and a DMSO content of 0.1%. DMSO was used as experimental control (control), and culture medium was used as blank control (blank). After 5 days of compound cell culture, 30 μL of CellTiter-Glo working solution was added to each well, mixed well and incubated for 30 minutes. After standing at room temperature for 30 minutes, 40 μL of the mixed solution was transferred to a white opaque 384-well plate, and the luminescence chemiluminescence value was read with a microplate reader. The cell proliferation inhibition rate IR (%)=(RLU control -RLU compound)/(RLU control−RLU blank)×100% was calculated. The gradient dilution concentration of the compound and the corresponding cell proliferation inhibition rate were fitted by XLFit four-parameter method, and the IC50 value was calculated. The inhibitory activity of the compounds prepared in the above embodiments of the present disclosure on KRAS G12C mutant MIA PaCa-2 cells was 0.0001 μM to 0.5 μM; the inhibitory activity of some compounds on KRAS G12C mutant MIA PaCa-2 cells was 0.001 μM to 0.1 μM or 0.001 μM to 0.05 μM.

For experiment [3], the system named is A549 cells (KRAS G12S mutant). In words: Cell proliferation inhibition experiment, 3D spheroid, CellTiter-Glo, A549. The settings on record: Homo sapiens, A549, 120 h, A549 (KRAS G12S mutant) 3D spheroid, 5 days with compound, CellTiter-Glo; read-out: A549 IC50.
Source text: as §1, §2

`C=CC(=O)N1CCN2C(=O)c3c(Nc4c(C)ccnc4C(C)C)nc(-c4c(O)cccc4F)c(F)c3OC[C@H]2C1` [Z9, (6aR)-8-acryloyl-4-fluoro-3-(2-fluoro-6-hydroxyphenyl)-1-((2-isopropyl-4-methylpyridin-3-yl)amino)-6,6a,7,8,9,10-hexahydro-12H-pyrazino[2,1-c]pyrido[3,4-f][1,4]oxazepin-12-one]: the IC50 (in general, the concentration that inhibits the measured activity by half) in experiment [1] is 23 nM; in experiment [2] it was 95 nM; in experiment [3] it was 11300 nM.

Consider `C=CC(=O)N1CCN2C(=O)c3c(N4CCOCC4)nc(-c4c(O)cccc4F)c(Cl)c3OC[C@H]2C1` [Z10, (6aR)-8-acryloyl-4-chloro-3-(2-fluoro-6-hydroxyphenyl)-1-morpholino-6,6a,7,8,9,10-hexahydro-12H-pyrazino[2,1-c]pyrido[3,4-f][1,4]oxazepin-12-one], for which the IC50 is 39 nM in experiment [1], 67 nM in experiment [2] and above 20000 nM in experiment [3].

Consider `C=CC(=O)N1CCN2C(=O)c3c(N4CCCC4)nc(-c4c(O)cccc4F)c(Cl)c3OC[C@H]2C1` [Z11, (6aR)-8-acryloyl-4-chloro-3-(2-fluoro-6-hydroxyphenyl)-1-(pyrrolidin-1-yl)-6,6a,7,8,9,10-hexahydro-12H-pyrazino[2,1-c]pyrido[3,4-f][1,4]oxazepin-12-one], for which the IC50 was 42 nM in experiment [1], 64 nM in experiment [2] and 9340 nM in experiment [3].

Regarding `C=CC(=O)N1CCN2Cc3c(Nc4c(C)ccnc4C(C)C)nc(-c4c(O)cccc4F)c(Cl)c3OC[C@H]2C1` [Z19, 1-((6aR)-4-chloro-3-(2-fluoro-6-hydroxyphenyl)-1-((2-isopropyl-4-methylpyridin-3-yl)amino)-6a,7,9,10-tetrahydro-12H-pyrazino[2,1-c]pyrido[3,4-f][1,4]oxazepin-8(6H)-yl)prop-2-en-1-one], the IC50 was 35 nM in experiment [1], 63 nM in experiment [2] and above 30000 nM in experiment [3].

`C=CC(=O)N1CCN2C(=O)c3c(N4CCO[C@@H](C)C4)nc(-c4c(O)cccc4F)c(Cl)c3OC[C@H]2C1` [Z23, (6aR)-8-acryloyl-4-chloro-3-(2-fluoro-6-hydroxyphenyl)-1-((S)-2-methylmorpholino)-6,6a,7,8,9,10-hexahydro-12H-pyrazino[2,1-c]pyrido[3,4-f][1,4]oxazepin-12-one]: the figures for the IC50 in experiment [1], in experiment [2] and in experiment [3] were 50 nM, 73 nM and above 5000 nM, respectively.

As for `C=CC(=O)N1CCN2C(=O)c3c(N4CCO[C@H](C)C4)nc(-c4c(O)cccc4F)c(Cl)c3OC[C@H]2C1` [Z24, (6aR)-8-acryloyl-4-chloro-3-(2-fluoro-6-hydroxyphenyl)-1-((R)-2-methylmorpholino)-6,6a,7,8,9,10-hexahydro-12H-pyrazino[2,1-c]pyrido[3,4-f][1,4]oxazepin-12-one], the IC50 was 26 nM in experiment [1], 36 nM in experiment [2] and above 5000 nM in experiment [3].

As to `C=CC(=O)N1CCN2C(=O)c3c(N(C)C4CCOCC4)nc(-c4c(O)cccc4F)c(Cl)c3OC[C@H]2C1` [Z25, (6aR)-8-acryloyl-4-chloro-3-(2-fluoro-6-hydroxyphenyl)-1-(methyl(tetrahydro-2H-pyran-4-yl)amino)-6,6a,7,8,9,10-hexahydro-12H-pyrazino[2,1-c]pyrido[3,4-f][1,4]oxazepin-12-one], the IC50 was 58 nM in experiment [1], 81 nM in experiment [2] and above 20000 nM in experiment [3].

Turning to `C=CC(=O)N1CCN2C(=O)c3c(N4CCOC[C@H]4C)nc(-c4c(O)cccc4F)c(Cl)c3OC[C@H]2C1` [Z27, (6aR)-8-acryloyl-4-chloro-3-(2-fluoro-6-hydroxyphenyl)-1-((R)-3-methylmorpholino)-6,6a,7,8,9,10-hexahydro-12H-pyrazino[2,1-c]pyrido[3,4-f][1,4]oxazepin-12-one], the IC50 in experiment [1] is 33 nM; in experiment [2], 41 nM; in experiment [3], above 5000 nM.

As to `C=CC(=O)N1CCN2C(=O)c3c(N[C@@H](C)c4ccccc4)nc(-c4c(O)cccc4F)c(Cl)c3OC[C@H]2C1` [Z29, (6aR)-8-acryloyl-4-chloro-3-(2-fluoro-6-hydroxyphenyl)-1-(((S)-1-phenylethyl)amino)-6,6a,7,8,9,10-hexahydro-12H-pyrazino[2,1-c]pyrido[3,4-f][1,4]oxazepin-12-one], the figures for the IC50 in experiment [1], in experiment [2] and in experiment [3] were 30 nM, 77 nM and 2430 nM, respectively.

For `C=CC(=O)N1CCN2C(=O)c3c(N4CCN(C)CC4)nc(-c4c(O)cccc4F)c(Cl)c3OC[C@H]2C1` [Z30, (6aR)-8-acryloyl-4-chloro-3-(2-fluoro-6-hydroxyphenyl)-1-(4-methylpiperazin-1-yl)-6,6a,7,8,9,10-hexahydro-12H-pyrazino[2,1-c]pyrido[3,4-f][1,4]oxazepin-12-one], the half-inhibitory concentration (IC50) in experiment [1] is 40 nM; in experiment [2], 41 nM; in experiment [3] it was above 20000 nM.

With `C=CC(=O)N1CCN2C(=O)c3c(N4CCC5(CCCC5)C4)nc(-c4c(O)cccc4F)c(Cl)c3OC[C@H]2C1` [Z34, (6aR)-8-acryloyl-4-chloro-3-(2-fluoro-6-hydroxyphenyl)-1-(2-azaspiro[4.4]nonan-2-yl)-6,6a,7,8,9,10-hexahydro-12H-pyrazino[2,1-c]pyrido[3,4-f][1,4]oxazepin-12-one], the IC50 stood at 32 nM in experiment [1], 81 nM in experiment [2] and 4910 nM in experiment [3].
